The source of these data is patent US20200347148A1, “METHODS FOR ENHANCING AND MAINTAINING CAR-T CELL EFFICACY” (Bellicum Pharmaceuticals, Inc., priority 2017, published 2020).

“Also recorded” adds a separate entry of the source.

The conditions of series [1]: Iuliucci J D, et al., J Clin Pharmacol. 2001; cited from earlier work.
The test system of series [2] is iC9 (inducible caspase-9) safety switch. Kind of series: Rimiducid activation of the iC9 safety switch in CAR-T-treated tumor-bearing NSG mice. It counts as in vivo. How it is done: Animal Models. To evaluate anti-tumor activity of CD19-targeted CAR-T cells, NSG mice were engrafted with 5×10^5 CD19^+ Raji or Raji-EGFPluc tumor cells by intravenous (i.v.) tail vein injection. After 4 days, variable doses of non-transduced and gene-modified T cells were administered by i.v. (tail) injection. In some experiments, mice were rechallenged with Raji-EGFPluc […] as above. To test CD123-specific CAR-T activity, 1×10^6 CD123^+ THP-1-EGFPluc were engrafted by i.v. injection, followed by infusion of 2.5×10^6 unmodified or CAR-T cells 7 days post-tumor engraftment. iC9 titration experiments were performed by treating Raji tumor-bearing mice with 5×10^6 iC9-CD19.ζ-MC-modified T cells followed by injection of rimiducid 7 days after T cell injection at 0.00005, 0.0005, 0.005, 0.05, 0.5 and 5 mg/kg. To evaluate cytokine-related toxicities, neutralizing antibodies against hIL-6, hIFN-γ and TNF-α or an isotype control antibody (Bio X Cell, West Lebanon, N.H.) were administered by i.p. injection with 100 ug twice weekly. Additional experiments were performed using positively selected CD4^+ and CD8+ iC9-CD19.ζ-MC-modified T cells using CD4 or CD8 microbeads and MACS columns (Miltenyi Biotec). In vivo tumor growth and T cell proliferation was measured by bioluminescence imaging (BLI) by i.p. injection of 150 mg/kg D-luciferin (Perkin Elmer, Waltham, Mass.) and imaged using the IVIS imaging system (Perkin Elmer). Photon emission was analyzed by whole body region-of-interest (ROI) and signal measured as average radiance (photons/second/cm2/steradian).
While administration of high dose rimiducid (5 mg/kg) allowed the persistence of low level CAR-T cells, titration of rimiducid may permit the retention of more gene-modified T cells while mitigating cytokine-related toxicities. T cells were co-transduced with iC9-CD19.ζ-MC and EGFPluc and administered into Raji-bearing mice. Following the onset of cachexia (>10% body weight loss), a log-titration of rimiducid (5-5×10^−5 mg/kg) was administered as a single i.p. injection (FIG. 6A).
To further study cachexia associated with administration of iC9-CAR.-MC-modified T cells, the CD19-redirected construct was assayed against CD19^+ Daudi tumors in vivo, and neutralizing antibodies targeting human IL-6, IFN-γ and TNF-α, all of which are cross-reactive with murine cytokine receptors, were administered, and followed by monitoring of mouse weight loss. Here, tumor-bearing mice were treated with 5×10^6 iC9-CD19.ζ-MC transduced T cells and following >10% weight loss, intervention with either a single i.p. dose of rimiducid (0.5 mg/kg) or vehicle, or twice weekly injections of 100 ug per mouse anti-hIFN-γ, hIL-6 or hTNF-α was initiated (FIG. 9A). […] 5×10^6 iC9-CD19.ζ-MC-modified T cells were injected in to Daudi-bearing NSG mice and then treated with 0.5 mg/kg rimiducid after >10% weight loss or with i.p. injections with […] twice per week with an isotype antibody (control) or with neutralizing antibodies against human TNF-α, IL-6 and IFN-γ. Weight recovery was monitored until day 28. […] Thus, cytokine blockade provides a second effective mechanism to resolve the toxicity of this potent approach.

The mark [3] stands for this setting: Raji model, 24 hours post-rimiducid.

Turning to `CC[C@H](C(=O)N1CCCC[C@H]1C(=O)O[C@H](CCc1ccc(OC)c(OC)c1)c1cccc(OCC(=O)NCCNC(=O)COc2cccc([C@@H](CCc3ccc(OC)c(OC)c3)OC(=O)[C@@H]3CCCCN3C(=O)[C@@H](CC)c3cc(OC)c(OC)c(OC)c3)c2)c1)c1cc(OC)c(OC)c(OC)c1` (relative stereo) [rimiducid, 2-Piperidinecarboxylic acid, 1-[(2S)-1-oxo-2-(3,4,5-trimethoxyphenyl)butyl]-, 1,2-ethanediylbis[imino(2-oxo-2,1-ethanediyl)oxy-3,1-phenylene[(1R)-3-(3,4-dimethoxyphenyl)propylidene]] ester, [2S-[1(R*),2R*[S*[S*[1(R*),2R*]]]]]-(9CI)], in series [1], the “safety in healthy volunteers” value is “proven safe”. Besides, in series [2] (Daudi model, 0.5 mg/kg single i.p.), the “serum concentrations of hTNF-α” value was “significantly reduced”. The “CAR-T BLI after rimiducid titration” value in series [2] (Raji model, 5-5×10^−5 mg/kg single i.p.) was “reduced in a rimiducid dose-dependent manner”. Further, in series [2] (setting [3]), the “serum cytokine levels (IL-6, IFN-γ, TNF-α) after rimiducid titration” value is “decreased serum cytokine levels” and the “serum levels of human cytokines (IFN-γ, IL-6) after rimiducid” value is “reverted to baseline levels”. The “resolution of CAR-related toxicity (weight loss)” value in series [2] (Raji model, iC9-CD19.ζ-MC T cells, single 5 mg/kg i.p., 5 mg/kg) is “promptly resolved toxicity; also recorded: successfully resolved”. The resolution of cachexia result in series [2] (THP-1 model, iC9-CD123.ζ-MC T cells, without affecting tumor control) was “could be resolved”.
